Experimental data: patent publication US7124068B2, “Crystal structure of a deacetylase and inhibitors thereof” (Sloan-Kettering Institute for Cancer Research, priority 1999, dated 2006)

What was measured:
mammary tumors = conditions: rats; cited from earlier work
lung tumors = conditions: mice; cited from earlier work
PLZF-RARα APL cells = conditions: cited from earlier work
HDLP = assay: Histone deacetylase assay with [3H] acetyl-labeled histone substrate; type: biochemical, Aquifex aeolicus; conditions: in vitro

Compound	preventing the formation of mammary tumors (mammary tumors)	preventing the formation of lung tumors (lung tumors)	responsiveness to retinoic acid-induced differentiation (PLZF-RARα APL cells)	inhibition of HDLP histone deacetylase activity (HDLP)
suberoylanilide hydroxamic acid [SAHA]	effective	effective		
CC(/C=C/C(=O)NO)=C\[C@@H](C)C(=O)c1ccc(N(C)C)cc1 [TSA, trichostatin A]			enhances their responsiveness	inhibited
